What was measured:
Substance-P receptor = Substance-P receptor (Cavia porcellus, UniProt P30547); test: Neurokinin (NK1) receptor antagonistic activity was evaluated.; format: functional
Cavia porcellus = test: Inhibitory activity of substance P-induced bronchoconstriction in guinea pigs upon intravenous administration was evaluated.; format: functional; details: read-out: ID50 (the source's name)

Chain of Substance-P receptor (P30547 whole entry): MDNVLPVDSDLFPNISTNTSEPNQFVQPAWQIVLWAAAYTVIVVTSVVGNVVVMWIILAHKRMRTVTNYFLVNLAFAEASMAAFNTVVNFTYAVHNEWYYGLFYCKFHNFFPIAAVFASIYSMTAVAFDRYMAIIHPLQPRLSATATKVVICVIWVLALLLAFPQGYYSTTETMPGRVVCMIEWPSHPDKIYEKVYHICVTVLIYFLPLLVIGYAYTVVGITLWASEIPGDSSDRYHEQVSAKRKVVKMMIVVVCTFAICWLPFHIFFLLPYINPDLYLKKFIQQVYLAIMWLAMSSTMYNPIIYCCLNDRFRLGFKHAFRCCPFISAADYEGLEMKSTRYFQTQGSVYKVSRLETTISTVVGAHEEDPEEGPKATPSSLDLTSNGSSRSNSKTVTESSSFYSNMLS

Structure (SMILES)	IC50 (Substance-P receptor)	ED50 (Cavia porcellus)
CC(C)Oc1cccc(CC(=O)N2CCCC(CC[N+]3(Cc4ccccc4)CCC4(CC3)NCCc3ccccc34)(c3ccc(Cl)c(Cl)c3)C2)c1 (configuration not stated)	0.016 µM	
CC(C)Oc1cccc(CC(=O)N2CCCC(CC[N+]3(C)CCC4(CC3)NCCc3ccccc34)(c3ccc(Cl)c(Cl)c3)C2)c1.[I-] (configuration not stated)	0.002 µM	0.049 mg/kg
CN(CC(CCN1CCC2(CC1)OCc1ccccc12)c1ccc(Cl)c(Cl)c1)C(=O)c1ccccc1 (configuration not stated)	0.71 µM	
CN(CC(CCN1CCC2(CC1)NCCc1ccccc12)c1ccc(Cl)c(Cl)c1)C(=O)c1ccccc1 (configuration not stated)	0.058 µM	
CC[N+]1(CCC2(c3ccc(Cl)c(Cl)c3)CCCN(C(=O)Cc3cccc(OC(C)C)c3)C2)CCC2(CC1)NCCc1ccccc12 (configuration not stated)	0.0048 µM	
CC(C)Oc1cccc(CC(=O)N2CCCC(CC[N+]34CCC(c5ccccc5)(CC3)CC4)(c3ccc(Cl)c(Cl)c3)C2)c1.[Cl-] (racemic)	0.00031 µM	0.019 mg/kg
CC(C)Oc1cccc(CC(=O)N2CCCC(CC[N+]3(C)CCC4(CC3)NC(=O)Cc3ccccc34)(c3ccc(Cl)c(Cl)c3)C2)c1.[I-] (stereo in doubt; 5ba)	0.0019 µM	0.024 mg/kg
CC(C)Oc1cccc(CC(=O)N2CCCC(CC[N+]3(C)CCC4(CC3)NC(=O)Cc3ccccc34)(c3ccc(Cl)c(Cl)c3)C2)c1 (stereo in doubt; 5bb)	0.035 µM	

Now from value to compound, other results behind:

IC50 (Substance-P receptor)	Structure (SMILES)	ED50 (Cavia porcellus)
0.016 µM	CC(C)Oc1cccc(CC(=O)N2CCCC(CCN3CCC4(CC3)OCc3ccccc34)(c3ccc(Cl)c(Cl)c3)C2)c1 (configuration not stated)	
0.105 µM	CC(C)Oc1cccc(CC(=O)N2CCCC(CCN3C4CCC3CC3(C4)OCc4ccccc43)(c3ccc(Cl)c(Cl)c3)C2)c1 (configuration not stated)	
0.054 µM	CC(C)Oc1cccc(CC(=O)N2CCCC(CCN3CCC4(CC3)NC(=O)Cc3ccccc34)(c3ccc(Cl)c(Cl)c3)C2)c1 (configuration not stated)	
0.0063 µM	CC(C)Oc1cccc(CC(=O)N2CCCC(CC[N+]3(C)CCC4(CC3)c3ccccc3C[S+]4[O-])(c3ccc(Cl)c(Cl)c3)C2)c1 (configuration not stated)	
0.018 µM	CC(C)Oc1cccc(CC(=O)N2CCCC(CCN3CCC4(CC3)c3ccccc3C[S+]4[O-])(c3ccc(Cl)c(Cl)c3)C2)c1 (configuration not stated)	
0.031 µM	CC(C)Oc1cccc(CC(=O)N2CCCC(CCN3CCC4(CC3)NCCc3ccccc34)(c3ccc(Cl)c(Cl)c3)C2)c1 (configuration not stated)	
